IC50 data for six compounds are collected here from BindingDB's records for doi:10.1021/jm031046g (Novartis Institutes For Biomedical Research, 2004).

This assay deals with C-C chemokine receptor type 5 (Macaca fascicularis). Put plainly: Antagonistic activity against monkey C-C chemokine receptor type 5.

Broadly, the IC50 is the concentration that gives 50% inhibition. Compound `Cc1cc[n+]([O-])c(C)c1C(=O)N1CCC(N2CCC(N(c3ccccc3)c3ccccc3)CC2)CC1` [(2,4-Dimethyl-1-oxy-pyridin-3-yl)-(4-diphenylamino-[1,4']bipiperidinyl-1'-yl)-methanone] had an IC50 of 117 nM.
As for `Cc1ccccc1C(=O)N1CCC(C)(N2CCC(N(c3ccccc3)c3ccccc3)CC2)CC1` [(4-Diphenylamino-4'-methyl-[1,4']bipiperidinyl-1'-yl)-o-tolyl-methanone], the figure is 28.6 nM; as for `Cc1cccc(C)c1C(=O)N1CCC(C)(N2CCC(Nc3ccc4ccn(C)c4c3)CC2)CC1` [(2,6-Dimethyl-phenyl)-[4'-methyl-4-(1-methyl-1H-indol-6-ylamino)-[1,4']bipiperidinyl-1'-yl]-methanone], 43 nM.
The value for `Cc1cccc(C)c1C(=O)N1CCC(C)(N2CCC(N(Cc3ccccc3)c3ccc(Br)cc3)CC2)CC1` [{4-[Benzyl-(4-bromo-phenyl)-amino]-4'-methyl-[1,4']bipiperidinyl-1'-yl}-(2,6-dimethyl-phenyl)-methanone] was 6.2 nM; that for `Cc1cccc(C)c1C(=O)N1CCC(C)(N2CCC(Nc3ccc(C(F)(F)F)cc3)CC2)CC1` [(2,6-Dimethyl-phenyl)-[4'-methyl-4-(4-trifluoromethyl-phenylamino)-[1,4']bipiperidinyl-1'-yl]-methanone] was 1.1 nM.
The value for `Cc1cccc(C)c1C(=O)N1CCC(C)(N2CCC(Nc3cccc4ccn(C)c34)CC2)CC1` [(2,6-Dimethyl-phenyl)-[4'-methyl-4-(1-methyl-1H-indol-7-ylamino)-[1,4']bipiperidinyl-1'-yl]-methanone] was 147 nM.
